IC50 data for 1 compound are collected here from BindingDB's records for patent US12415816 (Dana-Farber Cancer Institute, 2025).

For the assay, the target named is Tyrosine-protein kinase JAK2 (Homo sapiens, UniProt O60674). Put plainly: Biochemical Assay. As for the experimental part: The JAK2 Z-Lyte biochemical assay was performed according to manufacturer's instructions (Life Technologies).
Tyrosine-protein kinase JAK2, sequence (O60674 whole entry): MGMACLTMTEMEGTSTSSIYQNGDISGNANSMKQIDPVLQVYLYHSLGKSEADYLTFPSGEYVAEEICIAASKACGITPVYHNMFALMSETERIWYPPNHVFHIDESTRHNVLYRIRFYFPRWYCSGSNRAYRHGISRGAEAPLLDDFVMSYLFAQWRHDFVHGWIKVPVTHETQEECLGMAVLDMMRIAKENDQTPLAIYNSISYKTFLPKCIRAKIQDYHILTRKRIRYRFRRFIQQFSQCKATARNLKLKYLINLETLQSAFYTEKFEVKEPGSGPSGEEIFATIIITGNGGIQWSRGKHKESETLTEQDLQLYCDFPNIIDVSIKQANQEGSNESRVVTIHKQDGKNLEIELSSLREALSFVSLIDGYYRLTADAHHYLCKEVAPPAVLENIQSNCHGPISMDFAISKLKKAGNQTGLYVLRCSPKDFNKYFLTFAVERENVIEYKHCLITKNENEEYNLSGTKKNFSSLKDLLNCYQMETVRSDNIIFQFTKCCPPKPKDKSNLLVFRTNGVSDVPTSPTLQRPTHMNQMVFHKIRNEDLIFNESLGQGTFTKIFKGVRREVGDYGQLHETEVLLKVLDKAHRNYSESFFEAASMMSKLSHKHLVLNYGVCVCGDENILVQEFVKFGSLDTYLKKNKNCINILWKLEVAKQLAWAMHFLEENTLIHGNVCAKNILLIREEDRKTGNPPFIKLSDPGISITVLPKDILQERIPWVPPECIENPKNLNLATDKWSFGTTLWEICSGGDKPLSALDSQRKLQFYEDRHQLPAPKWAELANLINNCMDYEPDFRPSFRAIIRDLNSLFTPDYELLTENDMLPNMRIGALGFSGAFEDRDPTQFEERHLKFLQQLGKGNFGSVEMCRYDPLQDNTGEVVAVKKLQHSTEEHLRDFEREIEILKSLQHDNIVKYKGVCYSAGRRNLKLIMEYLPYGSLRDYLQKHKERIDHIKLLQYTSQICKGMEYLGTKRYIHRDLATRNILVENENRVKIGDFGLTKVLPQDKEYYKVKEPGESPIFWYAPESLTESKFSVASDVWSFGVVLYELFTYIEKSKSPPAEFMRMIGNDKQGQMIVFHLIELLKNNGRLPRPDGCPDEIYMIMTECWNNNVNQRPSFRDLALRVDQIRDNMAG

Turning to `CCN1CCN(Cc2cc(NC(=O)Nc3ccc(C)c(Oc4ccc5nc(NC(=O)C6CC6)sc5n4)c3)cc(C(F)(F)F)c2)CC1` [US12415816, Compound I-18], the concentration for half-maximal inhibition (IC50) (as a rule, the midpoint of a concentration-inhibition curve) amounted to 1450 nM.
